The test system of experiment [1] is voltage-dependent calcium channels (iliac rings). Description: Relaxation responses to nifedipine of CaCl2-contracted iliac rings from cynomolgus monkeys. Also on record: species or system cynomolgus (Macaca fascicularis) monkeys. Conditions: cholesterol-fed monkeys, with captopril. An excerpt:
Twenty-four male cynomolgus (Macaca fascicularis) monkeys were divided into four groups of six animals each. During the course of the study, one of the control monkeys was sacrificed due to ill health unrelated to the study. Each group was fed a different diet for six months. The control group ate a normal diet of monkey biscuit. The cholesterol group ate a specially formulated monkey diet containing cholesterol. The cholesterol +low captopril group ate the cholesterol diet supplemented with captopril (50 mg/kg divided into two daily doses). The cholesterol+high captopril group ate the cholesterol diet and a higher total dose of captopril (100 mg/kg divided into two daily doses).
The monkeys were sedated with an intramuscular injection of ketamine (10 mg/kg), then anesthetized with pentobarbital (25 mg/kg). The iliac arteries were carefully dissected, cleaned of surrounding connective tissue, and refrigerated overnight for use the following day.
On the day of the experiment, three iliac rings (3 mm wide) from each animal were cut and mounted for isometric force recording. Each ring was attached to a micrometer for the control of muscle length and to a Grass FT.03 force transducer and Grass 7D recorder. The rings were placed in warm (37° C.), oxygenated, physiological salt solution (PSS) of the following composition (in mM): 140.0 NaCl, 4.7 KCl, 1.2 MgSO4, 1.6 CaCl2, 1.2 NaH2 PO4, 5.6 D-glucose, 2.0 2-(N-morpholino)propanesulfonic acid (MOPS, pH 7.4 at 37° C.), and 0.02 Na2 -ethylenediaminetetraacetic acid (EDTA). The rings were stretched to a preload of 5 g during a 2 hour equilibration period, then stimulated with 1 μM phenylephrine to test for viability and relaxed with 100 nM acetylcholine to test for endothelial function. Stock solutions of phenylphrine, acetylcholine, propranolol, and sodium nitroprusside were prepared daily in water; nifedipine stock solutions were prepared daily in ethanol.
The voltage-dependent calcium channels were studied in one ring from each monkey. The protocol consisted of depleting the cells of calcium by exposing the rings to a Ca-free, EGTA (ethylene glycol-bis(β-aminoethyl ether)N,N,N',N'-tetraacetic acid) PSS (omission of CaCl2 and addition of 0.1 mM EGTA) for 30 minutes. The EGTA was subsequently removed from the tissues with three washes of Ca-free PSS (simple omission of CaCl2). Following that, the rings were bathed in Ca-free, K^+ PSS (omission of CaCl2 and isoosmotic substitution of KCl for NaCl such that the KCl concentration was 110 mM) for 30 minutes. A CaCl2 concentration-response curve was obtained by replacing the bath solution with K^+ PSS containing incremental increases in CaCl2 concentration (0.1, 0.3, 0.5, 1.0, 1.25, 1.6, and 2.5 mM). The maximal contractions, in response to 2.5 mM CaCl2, were then relaxed incrementally with nifedipine. Another iliac ring (fade control) from each monkey was subjected to the same protocol with the exception that the strips were allowed to remain contracted and the nifedipine concentration-response curve was not obtained. Some fade of the CaCl2 -induced force was observed over the time period required for the nifedipine concentration-response curve. This fade was accounted for by decreasing the amount of relaxation observed upon addition of nifedipine by the amount of fade observed in the time control from the same monkey.
Data are presented as mean±SEM. The IC50 and EC50 values were estimated by linearly interpolating from the concentration-response curves. […]

Experiment [2] relates to rat aortic rings. Particulars: Hartich et al, Shultz et al, cited from earlier work.
Experiment [3] relates to bovine aortic endothelial cells. Particulars: cited from earlier work.

Structures are written as SMILES.

Turning to `C[C@H](CS)C(=O)N1CCC[C@H]1C(=O)O` [captopril, 1-[(2S)-3-mercapto-2-methylpropionyl]-L-proline], the “effect on in vitro response of iliac arteries to nifedipine” value in experiment [1] is on record as “neither cholesterol nor captopril affected”. In experiment [2] (in vitro), the “endothelium dependent relaxation of normal rat aortic rings” value was “enhance endothelium dependent relaxation”. For the same compound, the “effect of acetylcholine in rat aortic rings after captopril feeding alone” value in experiment [2] (without cholesterol) was “potentiate the effects of acetylcholine”. The “release of prostacyclin or EDRF induced by bradykinin” value in experiment [3] (captopril 10 mu.K (so in the source)) is “did not affect the release”. In addition, in experiment [3], the “release of EDRF (direct)” value is reported as “ineffective as releasers of EDRF”.
